# Columns and labels:
# Format in all cases: in vivo
# Digitaria adscendens [1] = test: Test Example 2 upland soil treatment; conditions: Table 5, upland soil treatment, index 0-5
# How it was run: (§1)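 Visual 0–5 grading of herbicidal effect or phytotoxicity, made 21 days after a single pre-emergence soil-surface application at 1 kg a.i./ha.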
# Stellaria media [2] = test: Test Example 2 upland soil treatment; conditions: Table 5, upland soil treatment, index 0-5
# How it was run: as §1
# Chenopodium album [3] = test: Test Example 2 upland soil treatment; conditions: Table 5, upland soil treatment, index 0-5
# How it was run: as §1
# Setaria viridis [4] = test: Test Example 2 upland soil treatment; conditions: Table 5, upland soil treatment, index 0-5
# How it was run: as §1
# [5] = tested on: wheat (Triticum aestivum); test: Test Example 2 upland soil treatment, crop phytotoxicity; conditions: Table 5, upland soil treatment, index 0-5
# How it was run: as §1
# soybean (Glycine max) [6] = test: as above; conditions: Table 5, upland soil treatment, index 0-5
# How it was run: as §1
# Digitaria adscendens [7] = test: Test Example 1 upland field foliage treatment; conditions: Table 4, upland field foliage treatment, index 0-5
# How it was run: (§2)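 Scores are visual 0–5 ratings of herbicidal effect or crop injury (0: under 10%; 5: 90% or more) taken 21 days after treatment. Plants grew from seed in upland soil for 14 days, then foliage received the compound as a water-diluted wettable powder at 1 kg/ha active ingredient.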
# Stellaria media [8] = test: Test Example 1 upland field foliage treatment; conditions: Table 4, upland field foliage treatment, index 0-5
# How it was run: as §2
# Chenopodium album [9] = test: Test Example 1 upland field foliage treatment; conditions: Table 4, upland field foliage treatment, index 0-5
# How it was run: as §2
# Setaria viridis [10] = test: Test Example 1 upland field foliage treatment; conditions: Table 4, upland field foliage treatment, index 0-5
# How it was run: as §2
# Ammannia multiflora = test: Test Example 3 paddy field treatment; conditions: Table 6, paddy field treatment, active ingredient 1 kg per hectare, 21st day after dropping, index 0-5
# How it was run: (§3)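 Weed seeds sown in puddled paddy soil under 4 cm water, with two-leaf Koshihikari rice transplanted; 10 days later a wettable powder was applied to the water surface at 1 kg active ingredient/ha. Scored 21 days after application on a 0–5 scale (0 = <10%, 5 = ≥90% herbicidal effect or phytotoxicity).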
# Echinochloa crusgalli = test: Test Example 3 paddy field treatment; conditions: Table 6, paddy field treatment, active ingredient 1 kg per hectare, 21st day after dropping, index 0-5
# How it was run: as §3
# Monochoria vaginalis = test: Test Example 3 paddy field treatment; conditions: Table 6, paddy field treatment, active ingredient 1 kg per hectare, 21st day after dropping, index 0-5
# How it was run: as §3
# Scirpus juncoides = test: Test Example 3 paddy field treatment; conditions: Table 6, paddy field treatment, active ingredient 1 kg per hectare, 21st day after dropping, index 0-5
# How it was run: as §3
# [11] = tested on: wheat (Triticum aestivum); test: Test Example 1 upland field foliage treatment, crop phytotoxicity; conditions: Table 4, upland field foliage treatment, index 0-5
# How it was run: as §2
# soybean (Glycine max) [12] = test: as above; conditions: Table 4, upland field foliage treatment, index 0-5
# How it was run: as §2
# Rice (Oryza sativa) = test: Test Example 3 paddy field treatment, crop phytotoxicity; conditions: Table 6, paddy field treatment, transplanted rice, active ingredient 1 kg per hectare, 21st day after dropping, index 0-5
# How it was run: as §3
structure (smiles),measurement,setting,value
CNC(=O)C(Cn1cc(C)c(-c2ccc(OC(F)(F)CF)cc2)n1)=NOC [Compound 67],Herbicidal activity DA: Digitaria adscendens,Digitaria adscendens [1],"4 (herbicidal effect of not less than 70% and less than 90%, or phytotoxicity of 70% or more and less than 90%)"
same,Herbicidal activity SM: Stellaria media,Stellaria media [2],"5 (herbicidal effect of not less than 90%, or phytotoxicity of 90% or more)"
same,Herbicidal activity CA: Chenopodium album,Chenopodium album [3],"5 (herbicidal effect of not less than 90%, or phytotoxicity of 90% or more)"
same,Herbicidal activity SV: Setaria viridis,Setaria viridis [4],"4 (herbicidal effect of not less than 70% and less than 90%, or phytotoxicity of 70% or more and less than 90%)"
same,Herbicidal activity (phytotoxicity) TA: Wheat (Triticum aestivum),[5],"0 (herbicidal effect of not less than 0% and less than 10%, or phytotoxicity of 0% or more and less than 10%)"
same,Herbicidal activity (phytotoxicity) GM: Soybean (Glycine max),soybean (Glycine max) [6],"0 (herbicidal effect of not less than 0% and less than 10%, or phytotoxicity of 0% or more and less than 10%)"
same,Herbicidal activity DA: Digitaria adscendens,Digitaria adscendens [7],"5 (herbicidal effect of not less than 90%, or phytotoxicity of 90% or more)"
same,Herbicidal activity SM: Stellaria media,Stellaria media [8],"4 (herbicidal effect of not less than 70% and less than 90%, or phytotoxicity of 70% or more and less than 90%)"
same,Herbicidal activity CA: Chenopodium album,Chenopodium album [9],"5 (herbicidal effect of not less than 90%, or phytotoxicity of 90% or more)"
same,Herbicidal activity SV: Setaria viridis,Setaria viridis [10],"4 (herbicidal effect of not less than 70% and less than 90%, or phytotoxicity of 70% or more and less than 90%)"
same,Herbicidal activity AM,Ammannia multiflora,"4 (herbicidal effect of not less than 70% and less than 90%, or phytotoxicity of 70% or more and less than 90%)"
same,Herbicidal activity EC,Echinochloa crusgalli,"5 (herbicidal effect of not less than 90%, or phytotoxicity of 90% or more)"
same,Herbicidal activity MV,Monochoria vaginalis,"5 (herbicidal effect of not less than 90%, or phytotoxicity of 90% or more)"
same,Herbicidal activity SJ,Scirpus juncoides,"5 (herbicidal effect of not less than 90%, or phytotoxicity of 90% or more)"
same,Herbicidal activity (phytotoxicity) TA: Wheat (Triticum aestivum),[11],"0 (herbicidal effect of not less than 0% and less than 10%, or phytotoxicity of 0% or more and less than 10%)"
same,Herbicidal activity (phytotoxicity) GM: Soybean (Glycine max),soybean (Glycine max) [12],"0 (herbicidal effect of not less than 0% and less than 10%, or phytotoxicity of 0% or more and less than 10%)"
same,Herbicidal activity (phytotoxicity) OS,Rice (Oryza sativa),"0 (herbicidal effect of not less than 0% and less than 10%, or phytotoxicity of 0% or more and less than 10%)"
CNC(=O)C(Cn1cc(C)c(-c2ccc(F)c(OC)c2)n1)=NOC [Compound 77],Herbicidal activity DA: Digitaria adscendens,Digitaria adscendens [1],"5 (herbicidal effect of not less than 90%, or phytotoxicity of 90% or more)"
same,Herbicidal activity SM: Stellaria media,Stellaria media [2],"5 (herbicidal effect of not less than 90%, or phytotoxicity of 90% or more)"
same,Herbicidal activity CA: Chenopodium album,Chenopodium album [3],"5 (herbicidal effect of not less than 90%, or phytotoxicity of 90% or more)"
same,Herbicidal activity SV: Setaria viridis,Setaria viridis [4],"4 (herbicidal effect of not less than 70% and less than 90%, or phytotoxicity of 70% or more and less than 90%)"
same,Herbicidal activity (phytotoxicity) TA: Wheat (Triticum aestivum),[5],"0 (herbicidal effect of not less than 0% and less than 10%, or phytotoxicity of 0% or more and less than 10%)"
same,Herbicidal activity (phytotoxicity) GM: Soybean (Glycine max),soybean (Glycine max) [6],"0 (herbicidal effect of not less than 0% and less than 10%, or phytotoxicity of 0% or more and less than 10%)"
same,Herbicidal activity DA: Digitaria adscendens,Digitaria adscendens [7],"5 (herbicidal effect of not less than 90%, or phytotoxicity of 90% or more)"
same,Herbicidal activity SM: Stellaria media,Stellaria media [8],"3 (herbicidal effect of not less than 50% and less than 70%, or phytotoxicity of 50% or more and less than 70%)"
same,Herbicidal activity CA: Chenopodium album,Chenopodium album [9],"5 (herbicidal effect of not less than 90%, or phytotoxicity of 90% or more)"
same,Herbicidal activity SV: Setaria viridis,Setaria viridis [10],"3 (herbicidal effect of not less than 50% and less than 70%, or phytotoxicity of 50% or more and less than 70%)"
same,Herbicidal activity AM,Ammannia multiflora,"5 (herbicidal effect of not less than 90%, or phytotoxicity of 90% or more)"
same,Herbicidal activity EC,Echinochloa crusgalli,"5 (herbicidal effect of not less than 90%, or phytotoxicity of 90% or more)"
same,Herbicidal activity MV,Monochoria vaginalis,"5 (herbicidal effect of not less than 90%, or phytotoxicity of 90% or more)"
same,Herbicidal activity SJ,Scirpus juncoides,"5 (herbicidal effect of not less than 90%, or phytotoxicity of 90% or more)"
same,Herbicidal activity (phytotoxicity) TA: Wheat (Triticum aestivum),[11],"0 (herbicidal effect of not less than 0% and less than 10%, or phytotoxicity of 0% or more and less than 10%)"
same,Herbicidal activity (phytotoxicity) GM: Soybean (Glycine max),soybean (Glycine max) [12],"0 (herbicidal effect of not less than 0% and less than 10%, or phytotoxicity of 0% or more and less than 10%)"
same,Herbicidal activity (phytotoxicity) OS,Rice (Oryza sativa),"0 (herbicidal effect of not less than 0% and less than 10%, or phytotoxicity of 0% or more and less than 10%)"
CNC(=O)C(Cn1cc(C)c(-c2ccc(Cl)cc2F)n1)=NOC [Compound 81],Herbicidal activity DA: Digitaria adscendens,Digitaria adscendens [1],"5 (herbicidal effect of not less than 90%, or phytotoxicity of 90% or more)"
same,Herbicidal activity SM: Stellaria media,Stellaria media [2],"5 (herbicidal effect of not less than 90%, or phytotoxicity of 90% or more)"
same,Herbicidal activity CA: Chenopodium album,Chenopodium album [3],"5 (herbicidal effect of not less than 90%, or phytotoxicity of 90% or more)"
same,Herbicidal activity SV: Setaria viridis,Setaria viridis [4],"5 (herbicidal effect of not less than 90%, or phytotoxicity of 90% or more)"
same,Herbicidal activity (phytotoxicity) TA: Wheat (Triticum aestivum),[5],"0 (herbicidal effect of not less than 0% and less than 10%, or phytotoxicity of 0% or more and less than 10%)"
same,Herbicidal activity (phytotoxicity) GM: Soybean (Glycine max),soybean (Glycine max) [6],"1 (herbicidal effect of not less than 10% and less than 30%, or phytotoxicity of 10% or more and less than 30%)"
same,Herbicidal activity DA: Digitaria adscendens,Digitaria adscendens [7],"5 (herbicidal effect of not less than 90%, or phytotoxicity of 90% or more)"
same,Herbicidal activity SM: Stellaria media,Stellaria media [8],"5 (herbicidal effect of not less than 90%, or phytotoxicity of 90% or more)"
same,Herbicidal activity CA: Chenopodium album,Chenopodium album [9],"5 (herbicidal effect of not less than 90%, or phytotoxicity of 90% or more)"
same,Herbicidal activity SV: Setaria viridis,Setaria viridis [10],"5 (herbicidal effect of not less than 90%, or phytotoxicity of 90% or more)"
same,Herbicidal activity AM,Ammannia multiflora,"5 (herbicidal effect of not less than 90%, or phytotoxicity of 90% or more)"
same,Herbicidal activity EC,Echinochloa crusgalli,"5 (herbicidal effect of not less than 90%, or phytotoxicity of 90% or more)"
same,Herbicidal activity MV,Monochoria vaginalis,"5 (herbicidal effect of not less than 90%, or phytotoxicity of 90% or more)"
same,Herbicidal activity SJ,Scirpus juncoides,"5 (herbicidal effect of not less than 90%, or phytotoxicity of 90% or more)"
same,Herbicidal activity (phytotoxicity) TA: Wheat (Triticum aestivum),[11],"0 (herbicidal effect of not less than 0% and less than 10%, or phytotoxicity of 0% or more and less than 10%)"
same,Herbicidal activity (phytotoxicity) GM: Soybean (Glycine max),soybean (Glycine max) [12],"0 (herbicidal effect of not less than 0% and less than 10%, or phytotoxicity of 0% or more and less than 10%)"
same,Herbicidal activity (phytotoxicity) OS,Rice (Oryza sativa),"0 (herbicidal effect of not less than 0% and less than 10%, or phytotoxicity of 0% or more and less than 10%)"

# Source: patent US7192906B2, “Substituted pyrazole derivatives, production process thereof, and herbicide compositions containing the derivatives” (SDS Biotech K.K., priority 2001, dated 2007)
